# In patent US10485235B2, “Aryloxypyrimidinyl ethers as herbicides” (FMC Corporation, priority 2015, dated 2019):
# Tested on: barnyardgrass (Echinochloa crus-galli)
# Assay: Test B flooded paddy test, barnyardgrass
# Format: in vivo
# Conditions: 250 g ai/ha, Flood; visual rating after 13 to 15 days; scale 0 to 100, 0 is no effect, 100 is complete control
# In short: (§1)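 2-leaf plants; flood to 3 cm, dose into water, hold depth; greenhouse 13–15 d; visual score 0–100 vs controls; dash = not tested.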
row,Compound,"Plant response rating, Barnyardgrass"
1,FC(F)(F)CCCOc1c(Oc2ncc(Cl)cn2)cccc1C(F)(F)F [Compound 54],40

# Tested on: barnyardgrass (Echinochloa crus-galli)
# Assay: Test A preemergence, barnyardgrass
# Format: in vivo
# Conditions: Preemergence, 31 g ai/ha; 0 to 100 scale (0 no effect, 100 complete control)
# In short: (§2)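 Planted seeds in loam soil mixed with sand; sprayed soil directly (pre). Grew seedlings to one- to two-leaf stage, 2–10 cm; sprayed foliage (post). Held in greenhouse ~10 days. Rated injury visually vs untreated controls, 0–100.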
row,Compound,"Plant response rating, Barnyardgrass"
1,FC(F)(F)CCCOc1c(Oc2ncc(Cl)cn2)cccc1C(F)(F)F [Compound 54],20

# Same assay, conditions: Preemergence, 125 g ai/ha; 0 to 100 scale (0 no effect, 100 complete control)
row,Compound,"Plant response rating, Barnyardgrass"
1,FC(F)(F)CCCOc1c(Oc2ncc(Cl)cn2)cccc1C(F)(F)F [Compound 54],90

# Tested on: foxtail, giant (giant foxtail, Setaria faberii)
# Assay: Test A postemergence, giant foxtail
# Format: in vivo
# Conditions: 31 g ai/ha, postemergence; 0 to 100 scale, 0 is no effect, 100 is complete control; approximately 10 days
# In short: as §2
row,Compound,"Plant response rating, Foxtail, Giant"
1,FC(F)(F)CCCOc1c(Oc2ncc(Cl)cn2)cccc1C(F)(F)F [Compound 54],10

# Same assay, conditions: 125 g ai/ha, postemergence; 0 to 100 scale, 0 is no effect, 100 is complete control; approximately 10 days
row,Compound,"Plant response rating, Foxtail, Giant"
1,FC(F)(F)CCCOc1c(Oc2ncc(Cl)cn2)cccc1C(F)(F)F [Compound 54],70

# Tested on: ryegrass, Italian (Italian ryegrass, Lolium multiflorum)
# Assay: Test A preemergence, Italian ryegrass
# Format: in vivo
# Conditions: Preemergence, 31 g ai/ha; 0 to 100 scale (0 no effect, 100 complete control)
# In short: as §2
row,Compound,"Plant response rating, Ryegrass, Italian"
1,FC(F)(F)CCCOc1c(Oc2ncc(Cl)cn2)cccc1C(F)(F)F [Compound 54],10

# Same assay, conditions: Preemergence, 125 g ai/ha; 0 to 100 scale (0 no effect, 100 complete control)
row,Compound,"Plant response rating, Ryegrass, Italian"
1,FC(F)(F)CCCOc1c(Oc2ncc(Cl)cn2)cccc1C(F)(F)F [Compound 54],80

# Tested on: pigweed (Amaranthus retroflexus)
# Assay: Test A postemergence, pigweed
# Format: in vivo
# Conditions: 31 g ai/ha, postemergence; 0 to 100 scale, 0 is no effect, 100 is complete control; approximately 10 days
# In short: as §2
row,Compound,"Plant response rating, Pigweed"
1,FC(F)(F)CCCOc1c(Oc2ncc(Cl)cn2)cccc1C(F)(F)F [Compound 54],20

# Same assay, conditions: 125 g ai/ha, postemergence; 0 to 100 scale, 0 is no effect, 100 is complete control; approximately 10 days
row,Compound,"Plant response rating, Pigweed"
1,FC(F)(F)CCCOc1c(Oc2ncc(Cl)cn2)cccc1C(F)(F)F [Compound 54],80

# Tested on: ragweed (common ragweed, Ambrosia elatior)
# Assay: Test A preemergence, ragweed
# Format: in vivo
# Conditions: Preemergence, 31 g ai/ha; 0 to 100 scale (0 no effect, 100 complete control)
# In short: as §2
row,Compound,"Plant response rating, Ragweed"
1,FC(F)(F)CCCOc1c(Oc2ncc(Cl)cn2)cccc1C(F)(F)F [Compound 54],0

# Same assay, conditions: Preemergence, 125 g ai/ha; 0 to 100 scale (0 no effect, 100 complete control)
row,Compound,"Plant response rating, Ragweed"
1,FC(F)(F)CCCOc1c(Oc2ncc(Cl)cn2)cccc1C(F)(F)F [Compound 54],0

# Tested on: ryegrass, Italian (Italian ryegrass, Lolium multiflorum)
# Assay: Test A postemergence, Italian ryegrass
# Format: in vivo
# Conditions: 31 g ai/ha, postemergence; 0 to 100 scale, 0 is no effect, 100 is complete control; approximately 10 days
# In short: as §2
row,Compound,"Plant response rating, Ryegrass, Italian"
1,FC(F)(F)CCCOc1c(Oc2ncc(Cl)cn2)cccc1C(F)(F)F [Compound 54],0

# Same assay, conditions: 125 g ai/ha, postemergence; 0 to 100 scale, 0 is no effect, 100 is complete control; approximately 10 days
row,Compound,"Plant response rating, Ryegrass, Italian"
1,FC(F)(F)CCCOc1c(Oc2ncc(Cl)cn2)cccc1C(F)(F)F [Compound 54],20

# Tested on: blackgrass (Alopecurus myosuroides)
# Assay: Test A postemergence, blackgrass
# Format: in vivo
# Conditions: 31 g ai/ha, postemergence; 0 to 100 scale, 0 is no effect, 100 is complete control; approximately 10 days
# In short: as §2
row,Compound,"Plant response rating, Blackgrass"
1,FC(F)(F)CCCOc1c(Oc2ncc(Cl)cn2)cccc1C(F)(F)F [Compound 54],0

# Same assay, conditions: 125 g ai/ha, postemergence; 0 to 100 scale, 0 is no effect, 100 is complete control; approximately 10 days
row,Compound,"Plant response rating, Blackgrass"
1,FC(F)(F)CCCOc1c(Oc2ncc(Cl)cn2)cccc1C(F)(F)F [Compound 54],10

# Tested on: kochia (Kochia scoparia)
# Assay: Test A preemergence, kochia
# Format: in vivo
# Conditions: Preemergence, 31 g ai/ha; 0 to 100 scale (0 no effect, 100 complete control)
# In short: as §2
row,Compound,"Plant response rating, Kochia"
1,FC(F)(F)CCCOc1c(Oc2ncc(Cl)cn2)cccc1C(F)(F)F [Compound 54],0

# Same assay, conditions: Preemergence, 125 g ai/ha; 0 to 100 scale (0 no effect, 100 complete control)
row,Compound,"Plant response rating, Kochia"
1,FC(F)(F)CCCOc1c(Oc2ncc(Cl)cn2)cccc1C(F)(F)F [Compound 54],30

# Tested on: corn (Zea mays)
# Assay: Test A postemergence, corn
# Format: in vivo
# Conditions: 31 g ai/ha, postemergence; 0 to 100 scale, 0 is no effect, 100 is complete control; approximately 10 days
# In short: as §2
row,Compound,"Plant response rating, Corn"
1,FC(F)(F)CCCOc1c(Oc2ncc(Cl)cn2)cccc1C(F)(F)F [Compound 54],10

# Same assay, conditions: 125 g ai/ha, postemergence; 0 to 100 scale, 0 is no effect, 100 is complete control; approximately 10 days
row,Compound,"Plant response rating, Corn"
1,FC(F)(F)CCCOc1c(Oc2ncc(Cl)cn2)cccc1C(F)(F)F [Compound 54],20

# Tested on: sedge, umbrella (small-flower umbrella sedge, Cyperus difformis)
# Assay: Test B flooded paddy test, umbrella sedge
# Format: in vivo
# Conditions: 250 g ai/ha, Flood; visual rating after 13 to 15 days; scale 0 to 100, 0 is no effect, 100 is complete control
# In short: as §1
row,Compound,"Plant response rating, Sedge, Umbrella"
1,FC(F)(F)CCCOc1c(Oc2ncc(Cl)cn2)cccc1C(F)(F)F [Compound 54],100

# Tested on: ducksalad (Heteranthera limosa)
# Assay: Test B flooded paddy test, ducksalad
# Format: in vivo
# Conditions: 250 g ai/ha, Flood; visual rating after 13 to 15 days; scale 0 to 100, 0 is no effect, 100 is complete control
# In short: as §1
row,Compound,"Plant response rating, Ducksalad"
1,FC(F)(F)CCCOc1c(Oc2ncc(Cl)cn2)cccc1C(F)(F)F [Compound 54],100

# Tested on: ragweed (common ragweed, Ambrosia elatior)
# Assay: Test A postemergence, ragweed
# Format: in vivo
# Conditions: 31 g ai/ha, postemergence; 0 to 100 scale, 0 is no effect, 100 is complete control; approximately 10 days
# In short: as §2
row,Compound,"Plant response rating, Ragweed"
1,FC(F)(F)CCCOc1c(Oc2ncc(Cl)cn2)cccc1C(F)(F)F [Compound 54],0

# Same assay, conditions: 125 g ai/ha, postemergence; 0 to 100 scale, 0 is no effect, 100 is complete control; approximately 10 days
row,Compound,"Plant response rating, Ragweed"
1,FC(F)(F)CCCOc1c(Oc2ncc(Cl)cn2)cccc1C(F)(F)F [Compound 54],10

# Tested on: galium (catchweed bedstraw, Galium aparine)
# Assay: Test A postemergence, galium
# Format: in vivo
# Conditions: 31 g ai/ha, postemergence; 0 to 100 scale, 0 is no effect, 100 is complete control; approximately 10 days
# In short: as §2
row,Compound,"Plant response rating, Galium"
1,FC(F)(F)CCCOc1c(Oc2ncc(Cl)cn2)cccc1C(F)(F)F [Compound 54],20

# Same assay, conditions: 125 g ai/ha, postemergence; 0 to 100 scale, 0 is no effect, 100 is complete control; approximately 10 days
row,Compound,"Plant response rating, Galium"
1,FC(F)(F)CCCOc1c(Oc2ncc(Cl)cn2)cccc1C(F)(F)F [Compound 54],50

# Tested on: rice (Oryza sativa)
# Assay: Test B flooded paddy test, rice
# Format: in vivo
# Conditions: 250 g ai/ha, Flood; visual rating after 13 to 15 days; scale 0 to 100, 0 is no effect, 100 is complete control
# In short: as §1
row,Compound,"Plant response rating, Rice"
1,FC(F)(F)CCCOc1c(Oc2ncc(Cl)cn2)cccc1C(F)(F)F [Compound 54],40

# Tested on: kochia (Kochia scoparia)
# Assay: Test A postemergence, kochia
# Format: in vivo
# Conditions: 31 g ai/ha, postemergence; 0 to 100 scale, 0 is no effect, 100 is complete control; approximately 10 days
# In short: as §2
row,Compound,"Plant response rating, Kochia"
1,FC(F)(F)CCCOc1c(Oc2ncc(Cl)cn2)cccc1C(F)(F)F [Compound 54],10

# Same assay, conditions: 125 g ai/ha, postemergence; 0 to 100 scale, 0 is no effect, 100 is complete control; approximately 10 days
row,Compound,"Plant response rating, Kochia"
1,FC(F)(F)CCCOc1c(Oc2ncc(Cl)cn2)cccc1C(F)(F)F [Compound 54],50

# Tested on: foxtail, giant (giant foxtail, Setaria faberii)
# Assay: Test A preemergence, giant foxtail
# Format: in vivo
# Conditions: Preemergence, 31 g ai/ha; 0 to 100 scale (0 no effect, 100 complete control)
# In short: as §2
row,Compound,"Plant response rating, Foxtail, Giant"
1,FC(F)(F)CCCOc1c(Oc2ncc(Cl)cn2)cccc1C(F)(F)F [Compound 54],50

# Same assay, conditions: Preemergence, 125 g ai/ha; 0 to 100 scale (0 no effect, 100 complete control)
row,Compound,"Plant response rating, Foxtail, Giant"
1,FC(F)(F)CCCOc1c(Oc2ncc(Cl)cn2)cccc1C(F)(F)F [Compound 54],100

# Tested on: pigweed (Amaranthus retroflexus)
# Assay: Test A preemergence, pigweed
# Format: in vivo
# Conditions: Preemergence, 31 g ai/ha; 0 to 100 scale (0 no effect, 100 complete control)
# In short: as §2
row,Compound,"Plant response rating, Pigweed"
1,FC(F)(F)CCCOc1c(Oc2ncc(Cl)cn2)cccc1C(F)(F)F [Compound 54],20

# Same assay, conditions: Preemergence, 125 g ai/ha; 0 to 100 scale (0 no effect, 100 complete control)
row,Compound,"Plant response rating, Pigweed"
1,FC(F)(F)CCCOc1c(Oc2ncc(Cl)cn2)cccc1C(F)(F)F [Compound 54],100

# Tested on: barnyardgrass (Echinochloa crus-galli)
# Assay: Test A postemergence, barnyardgrass
# Format: in vivo
# Conditions: 31 g ai/ha, postemergence; 0 to 100 scale, 0 is no effect, 100 is complete control; approximately 10 days
# In short: as §2
row,Compound,"Plant response rating, Barnyardgrass"
1,FC(F)(F)CCCOc1c(Oc2ncc(Cl)cn2)cccc1C(F)(F)F [Compound 54],10

# Same assay, conditions: 125 g ai/ha, postemergence; 0 to 100 scale, 0 is no effect, 100 is complete control; approximately 10 days
row,Compound,"Plant response rating, Barnyardgrass"
1,FC(F)(F)CCCOc1c(Oc2ncc(Cl)cn2)cccc1C(F)(F)F [Compound 54],20

# Tested on: wheat (Triticum aestivum)
# Assay: Test A postemergence, wheat
# Format: in vivo
# Conditions: 31 g ai/ha, postemergence; 0 to 100 scale, 0 is no effect, 100 is complete control; approximately 10 days
# In short: as §2
row,Compound,"Plant response rating, Wheat"
1,FC(F)(F)CCCOc1c(Oc2ncc(Cl)cn2)cccc1C(F)(F)F [Compound 54],0

# Same assay, conditions: 125 g ai/ha, postemergence; 0 to 100 scale, 0 is no effect, 100 is complete control; approximately 10 days
row,Compound,"Plant response rating, Wheat"
1,FC(F)(F)CCCOc1c(Oc2ncc(Cl)cn2)cccc1C(F)(F)F [Compound 54],10
